Reference: the NIST ThermoML archive (doi:10.1021/je0499420)
± gives the expanded uncertainty stated by the source.

Experiments:
[1] = Liquid; for Critical pressure: Direct measurement; for Critical temperature: Visual observation in an unstirred cell
[2] = xn = mol fraction of the nth substance listed; conditions: Liquid

SMILES	Critical density [1] [kg/m3]	Critical pressure [1] [kPa]	Critical temperature [1] [K]	Critical density ([2]; x1 = 1) [kg/m3]	Critical density ([2]; x2 = 0) [kg/m3]	also measured
FC(C(F)(F)F)C(F)(F)F [1,1,1,2,3,3,3-heptafluoropropane]	598 ± 14	2930 ± 12	375 ± 0.16			
COC(F)(F)C(F)(F)F [methyl pentafluoroethyl ether] + FC(F)C(F)(F)F				491 ± 11		Critical density ([2]; x1 = 0.1408): 551 ± 13 kg/m3; Critical density ([2]; x1 = 0.2438): 543 ± 13 kg/m3; Critical density ([2]; x1 = 0.4346): 540 ± 13 kg/m3; Critical density ([2]; x1 = 0.5897): 536 ± 12 kg/m3; Critical density ([2]; x1 = 0.7753): 521 ± 12 kg/m3
FC(C(F)(F)F)C(F)(F)F [1,1,1,2,3,3,3-heptafluoropropane] + COC(F)(F)C(F)(F)F					598 ± 14	
COC(F)(F)C(F)(F)F [methyl pentafluoroethyl ether] + FCC(F)(F)F				491 ± 11		Critical density ([2]; x1 = 0.1167): 508 ± 12 kg/m3; Critical density ([2]; x1 = 0.2446): 512 ± 12 kg/m3; Critical density ([2]; x1 = 0.4299): 509 ± 12 kg/m3; Critical density ([2]; x1 = 0.5886): 506 ± 12 kg/m3; Critical density ([2]; x1 = 0.7674): 503 ± 12 kg/m3
FCC(F)(F)F [1,1,1,2-tetrafluoroethane]	508 ± 12	4053 ± 12	374.13 ± 0.16			
FC(F)C(F)(F)F [pentafluoroethane]	560 ± 13	3617 ± 12	339.2 ± 0.16			
FC(F)C(F)C(F)(F)F (stereo not drawn) [1,1,1,2,3,3-hexafluoropropane]	562 ± 13	3416 ± 12	412.41 ± 0.16			
COC(F)(F)C(F)(F)F [methyl pentafluoroethyl ether]	491 ± 11	2885 ± 12	406.82 ± 0.16			
FC(F)C(F)(F)F [pentafluoroethane] + COC(F)(F)C(F)(F)F					560 ± 13	
COC(F)(F)C(F)(F)F [methyl pentafluoroethyl ether] + FC(C(F)(F)F)C(F)(F)F				491 ± 11		Critical density ([2]; x1 = 0.1823): 584 ± 14 kg/m3; Critical density ([2]; x1 = 0.306): 558 ± 13 kg/m3; Critical density ([2]; x1 = 0.4769): 545 ± 13 kg/m3; Critical density ([2]; x1 = 0.6944): 531 ± 12 kg/m3; Critical density ([2]; x1 = 0.8132): 519 ± 12 kg/m3
COC(F)(F)C(F)(F)F [methyl pentafluoroethyl ether] + FC(F)C(F)C(F)(F)F				491 ± 11		
FCC(F)(F)F [1,1,1,2-tetrafluoroethane] + COC(F)(F)C(F)(F)F					508 ± 12	
FC(F)C(F)C(F)(F)F (stereo not drawn) [1,1,1,2,3,3-hexafluoropropane] + COC(F)(F)C(F)(F)F					562 ± 13	Critical density ([2]; x2 = 0.1546): 550 ± 13 kg/m3; Critical density ([2]; x2 = 0.3124): 535 ± 12 kg/m3; Critical density ([2]; x2 = 0.4485): 534 ± 12 kg/m3; Critical density ([2]; x2 = 0.6388): 520 ± 12 kg/m3; Critical density ([2]; x2 = 0.7888): 506 ± 12 kg/m3
